Measurements reported in patent US20130287870A1, “NOVEL USES FOR TRADITIONAL CHINESE MEDICINE” (priority 2012, published 2013).

Assays:
cortical neurons [1] = test: Membrane hyperpolarization associated with neuroprotection; format: cell-based, mouse
cortical neurons [2] = test: Oxygen glucose deprivation (OGD) model, neuronal death assessed by Hoechst staining; format: cell-based, mouse; details: glibenclamide 10 μM applied 30 min before MLC901 1 μg/mL
Method: Time-pregnant (E14) C57B16/J mice were anesthetized with isopentane followed by cervical dislocation as previously described (Heurteaux et al., 2010). Fetuses were removed and placed in cold HBSS^+ solution. Cerebral cortices were dissected in cold HBSS^+ solution and the meninges were removed. Cortical samples were cut in small pieces and were gently triturated with a fire-polished glass Pasteur pipette in 8 ml HBSS^+ solution. The mix was filtered (40 μm filter) and centrifuged at 800 rpm for 8 min. The supernatant was removed and the pellet was dissolved in 2 ml culture medium. Cells were plated on poly-D-lysine (Sigma-Aldrich Chimie, St Quentin Fallavier, France)-coated 12 well (24 mm diameter) plates with glass coverslips (12 mm diameter) (CML, Nemours, France) at a density of 1×10^6 cells/well. Cultures were maintained at 37° C. in a humidified 95% air/5% CO2 atmosphere incubator in Neurobasal supplemented with B27, Glutamax, 100 units/ml penicillin, and 100 µg/ml streptomycin and used for experiments up to 12 days. Glial growth was suppressed by addition of 5-Fluoro-2-deoxyuridine (2 μM) and Uridine (2 μM) during the second day of culture.
OGD experiments were performed on primary mouse cortical neurons seeded at a density of 1,000,000 cells/35-mm dish after 4 days of culture (Goldberg and Choi, 1993). […]

[3] = molecular target: T1, KATP channels in INS-R9 insulinoma cells (Rattus norvegicus, UniProt P70673+Q09429); test: Whole cell patch clamp recording of endogenous KATP currents in INS-R9 cells; format: cell-based; details: 10 μM pinacidil applied with MLC901 1 μg/mL
T1 construct: Insulinoma cells naturally have KATP channels; endogenous in cells; host or cells: rat INS-R9 insulinoma cells
Method: All electrophysiological experiments were done on INS-R9 transfected cells seeded at a density of 20,000 cells/35-mm dish. Transfected cells were used 48-72 h after transfection. […] All current amplitudes are expressed in current densities. Results are expressed as mean and standard error of the mean (SEM). […] For le currents the bath solution contained (in mM) 150 NaCl, 5 KCl, 3 MgCl2, 1 CaCl2 and 10 HEPES adjusted to pH 7.4 with NaOH. […] For Na^+ currents, the bath solution contained (in mM) 150 NaCl, 2 KCl, 1 MgCl2, 1.5 CaCl2, 10 glucose and 10 HEPES adjusted to pH 7.4 with NaOH. […] All experiments were performed at room temperature (21-22° c.). Stimulation protocols and data acquisition were carried out using a microcomputer (Dell Pentium) witch used a commercial software and hardware (pClamp 8.2). K^+ Currents were recorded by voltage clamp steps to membrane potentials of −140 to +80 mV for neurons or −100 to +60 mV for transfected cell lines in 20 mV steps applied from a holding potential of −80 mV. […] Current amplitudes were evaluated at the end of the stimulation pulses. Na^+ currents were recorded by voltage clamp steps to membrane potentials of −80 to +50 mV in 5 mV steps applied from a holding potential of −100 mV. The duration of a depolarization pulse was 100 ms, and the pulse cycling rate was 2 s. Current amplitudes were evaluated at the peak of the stimulation pulses. […]

[4] = molecular target: KATP channel (Kir 6.2 and SUR 1) (Homo sapiens, UniProt Q09428+Q14654); test: Two-electrode voltage clamp of KATP channels expressed in Xenopus oocytes, preactivated by sodium azide; format: cell-based; details: sodium azide 3 mM; test substance 10 μM
KATP channel (Kir 6.2 and SUR 1), sequence (Q14654 whole entry): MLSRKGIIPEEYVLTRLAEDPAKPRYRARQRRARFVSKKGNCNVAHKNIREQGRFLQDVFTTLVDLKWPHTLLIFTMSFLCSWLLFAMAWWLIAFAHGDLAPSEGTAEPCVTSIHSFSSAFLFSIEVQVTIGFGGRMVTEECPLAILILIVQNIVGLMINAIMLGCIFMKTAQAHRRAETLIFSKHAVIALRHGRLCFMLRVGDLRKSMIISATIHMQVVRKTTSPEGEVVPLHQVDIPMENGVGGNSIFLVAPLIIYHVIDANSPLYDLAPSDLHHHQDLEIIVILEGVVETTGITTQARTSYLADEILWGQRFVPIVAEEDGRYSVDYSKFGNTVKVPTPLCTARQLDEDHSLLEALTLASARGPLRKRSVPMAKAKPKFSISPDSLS
KATP channel (Kir 6.2 and SUR 1), sequence (Q09428 whole entry): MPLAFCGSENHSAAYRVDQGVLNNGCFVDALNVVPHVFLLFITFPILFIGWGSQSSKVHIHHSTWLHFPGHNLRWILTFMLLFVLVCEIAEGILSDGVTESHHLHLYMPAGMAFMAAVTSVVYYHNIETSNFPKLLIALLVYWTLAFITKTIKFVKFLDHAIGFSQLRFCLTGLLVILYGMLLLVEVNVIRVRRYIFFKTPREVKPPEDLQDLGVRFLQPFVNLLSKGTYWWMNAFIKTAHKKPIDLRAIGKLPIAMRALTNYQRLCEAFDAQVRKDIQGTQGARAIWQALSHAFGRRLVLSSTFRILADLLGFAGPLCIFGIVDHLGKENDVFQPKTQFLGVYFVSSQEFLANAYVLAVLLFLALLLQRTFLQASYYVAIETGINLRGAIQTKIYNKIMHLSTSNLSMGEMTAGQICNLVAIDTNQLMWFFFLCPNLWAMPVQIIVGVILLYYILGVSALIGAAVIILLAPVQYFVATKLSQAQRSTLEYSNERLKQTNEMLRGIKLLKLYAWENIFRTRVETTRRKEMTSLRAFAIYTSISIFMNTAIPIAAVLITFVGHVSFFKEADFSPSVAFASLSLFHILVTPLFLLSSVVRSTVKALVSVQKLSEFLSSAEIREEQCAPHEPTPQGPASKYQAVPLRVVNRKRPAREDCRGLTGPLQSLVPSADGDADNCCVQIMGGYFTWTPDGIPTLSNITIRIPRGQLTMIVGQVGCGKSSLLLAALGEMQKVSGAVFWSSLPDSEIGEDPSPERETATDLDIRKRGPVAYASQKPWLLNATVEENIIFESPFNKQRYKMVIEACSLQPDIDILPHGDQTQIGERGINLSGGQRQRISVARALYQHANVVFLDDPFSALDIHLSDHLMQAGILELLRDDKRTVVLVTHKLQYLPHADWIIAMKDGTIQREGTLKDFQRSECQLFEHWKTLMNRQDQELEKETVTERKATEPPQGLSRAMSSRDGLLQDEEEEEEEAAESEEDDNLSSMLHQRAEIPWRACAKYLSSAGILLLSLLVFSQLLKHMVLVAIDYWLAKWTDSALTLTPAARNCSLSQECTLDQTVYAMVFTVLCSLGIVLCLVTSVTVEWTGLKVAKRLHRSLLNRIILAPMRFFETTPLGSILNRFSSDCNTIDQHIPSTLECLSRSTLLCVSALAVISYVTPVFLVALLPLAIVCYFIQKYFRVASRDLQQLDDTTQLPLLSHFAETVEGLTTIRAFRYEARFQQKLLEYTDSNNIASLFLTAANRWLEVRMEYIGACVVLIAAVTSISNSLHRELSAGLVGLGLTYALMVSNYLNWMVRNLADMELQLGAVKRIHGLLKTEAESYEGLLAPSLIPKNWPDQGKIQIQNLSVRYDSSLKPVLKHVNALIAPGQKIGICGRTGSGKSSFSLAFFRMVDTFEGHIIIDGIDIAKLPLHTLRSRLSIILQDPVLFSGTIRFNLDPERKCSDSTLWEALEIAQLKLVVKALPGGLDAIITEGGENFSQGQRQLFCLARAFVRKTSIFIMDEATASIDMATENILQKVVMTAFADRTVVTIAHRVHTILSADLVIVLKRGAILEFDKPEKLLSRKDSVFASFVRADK
Method: Defolliculated Xenopus oocytes were injected with 100 mL of cRNA at 0.02-0.4 μg/μL for Kir 6.2 and SUR 1 expression, and recorded 2-4 days later.
For electrophysiology, single oocytes were placed in a 0.3-mL perfusion chamber and impaled with two standard microelectrodes (1-2.5 M.Q. resistance) filled with 3 M KCl and voltage clamped with a Dagan CA-1 amplifier, in symmetrical potassium solution containing (in mM) (90 KCl, 1.8 CaCl2, 1 mM MgCl2, 5 Hepes, pH 7.4 with KOH). Stimulation of the preparation, data acquisition, and analysis were performed using pClamp software (Axon Instruments). Currents were recorded in this potassium symmetrical control condition. KATP channel activity was evaluated by intracellular ATP depletion by 3 mM of sodium azide.
For Kir 6.2 and SUR 1 expression defolliculated Xenopus oocytes were injected with 100 mL of cRNA at 0.02-0.4 μg/μL, and currents were recorded after 2-4 days. […] Currents were recorded in the potassium symmetrical control condition. KATP channel activity was evaluated by intracellular ATP depletion by 3 mM of sodium azide.
current was first recorded in control condition (symmetrical potassium solution). […]

T1 sequence (P70673 whole entry): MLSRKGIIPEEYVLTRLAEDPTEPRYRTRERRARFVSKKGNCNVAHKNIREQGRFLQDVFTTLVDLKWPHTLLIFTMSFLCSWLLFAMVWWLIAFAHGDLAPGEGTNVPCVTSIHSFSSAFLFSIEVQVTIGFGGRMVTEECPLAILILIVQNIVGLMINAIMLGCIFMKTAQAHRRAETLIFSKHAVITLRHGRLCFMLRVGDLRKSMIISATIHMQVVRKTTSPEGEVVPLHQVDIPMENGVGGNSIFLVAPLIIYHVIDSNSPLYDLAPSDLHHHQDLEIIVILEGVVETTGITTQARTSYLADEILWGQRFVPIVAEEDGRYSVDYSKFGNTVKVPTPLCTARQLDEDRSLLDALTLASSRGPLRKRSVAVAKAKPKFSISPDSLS
T1 sequence (Q09429 whole entry): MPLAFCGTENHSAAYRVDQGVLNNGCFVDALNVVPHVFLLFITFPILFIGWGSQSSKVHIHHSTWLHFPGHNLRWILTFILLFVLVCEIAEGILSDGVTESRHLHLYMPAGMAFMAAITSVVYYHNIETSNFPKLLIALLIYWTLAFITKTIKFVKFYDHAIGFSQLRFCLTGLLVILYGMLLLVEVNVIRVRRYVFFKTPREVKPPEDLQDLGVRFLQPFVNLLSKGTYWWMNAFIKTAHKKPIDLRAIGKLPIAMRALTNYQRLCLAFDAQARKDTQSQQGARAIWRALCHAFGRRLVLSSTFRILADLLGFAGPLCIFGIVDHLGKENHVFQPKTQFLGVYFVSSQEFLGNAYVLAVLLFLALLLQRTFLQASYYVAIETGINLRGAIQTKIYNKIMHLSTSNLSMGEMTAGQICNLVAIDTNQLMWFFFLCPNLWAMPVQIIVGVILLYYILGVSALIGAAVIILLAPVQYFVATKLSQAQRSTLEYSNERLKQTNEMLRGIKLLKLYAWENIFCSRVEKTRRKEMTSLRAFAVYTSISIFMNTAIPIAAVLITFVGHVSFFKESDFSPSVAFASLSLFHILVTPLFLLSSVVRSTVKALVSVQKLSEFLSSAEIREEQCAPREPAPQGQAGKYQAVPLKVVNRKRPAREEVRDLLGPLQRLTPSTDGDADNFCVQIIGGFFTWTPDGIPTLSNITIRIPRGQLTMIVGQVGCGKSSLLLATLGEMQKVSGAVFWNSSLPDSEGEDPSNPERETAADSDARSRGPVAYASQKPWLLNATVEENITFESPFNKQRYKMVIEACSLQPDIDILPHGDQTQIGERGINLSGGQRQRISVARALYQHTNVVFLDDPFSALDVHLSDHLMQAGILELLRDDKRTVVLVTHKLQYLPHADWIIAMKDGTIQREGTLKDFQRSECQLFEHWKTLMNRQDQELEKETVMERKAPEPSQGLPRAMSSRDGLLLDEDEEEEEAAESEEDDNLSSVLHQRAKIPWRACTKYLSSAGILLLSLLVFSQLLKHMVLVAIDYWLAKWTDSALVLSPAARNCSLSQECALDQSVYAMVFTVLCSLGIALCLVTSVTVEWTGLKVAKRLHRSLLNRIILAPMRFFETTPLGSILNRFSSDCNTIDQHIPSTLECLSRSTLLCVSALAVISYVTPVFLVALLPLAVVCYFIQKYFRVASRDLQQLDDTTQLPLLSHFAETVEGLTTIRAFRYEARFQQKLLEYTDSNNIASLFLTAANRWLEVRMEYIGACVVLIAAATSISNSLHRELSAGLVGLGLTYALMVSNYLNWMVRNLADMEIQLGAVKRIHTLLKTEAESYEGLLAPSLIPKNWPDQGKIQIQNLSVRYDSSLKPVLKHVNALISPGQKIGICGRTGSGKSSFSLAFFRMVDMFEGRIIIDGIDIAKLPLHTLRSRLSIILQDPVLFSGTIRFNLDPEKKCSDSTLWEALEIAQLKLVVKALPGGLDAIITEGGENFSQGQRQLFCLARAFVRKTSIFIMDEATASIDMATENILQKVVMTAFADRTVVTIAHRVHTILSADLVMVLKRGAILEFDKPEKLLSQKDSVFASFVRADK

Structure (SMILES): COc1ccc(Cl)cc1C(=O)NCCc1ccc(S(=O)(=O)NC(=O)NC2CCCCC2)cc1 [glibenclamide]
- effect on MLC901-induced hyperpolarization (cortical neurons [1]): antagonized
- effect on the protection induced by MLC901 against OGD damage (cortical neurons [2]): inhibited the protection induced by MLC901

Structure (SMILES): CC(N=C(NC#N)Nc1ccncc1)C(C)(C)C (stereo not shown) [pinacidil, N-cyano-N′-pyridin-4-yl-N″-(1,2,2-trimethylpropyl)guanidine]
- KATP current in INS-R9 cells, combination with MLC901 [3]: additive effect
- amplitude of the azide-induced KATP channel current [4]: amplified
